The values that follow are results of earlier work, collected in publication PMC7909736 (Pharmaceutical Research, 2021).

For the data set the following is noted: share rate of 10 s^−1, room temperature.

Consider `CC(=CCCCOCC(O)CO)CCCC(C)CCCC(C)C` (stereo not shown) [Formulation C17MGE, mono-O-(5,9, 13-trimethyl-4-tetradecenyl) glycerol ester], for which the Viscosity is reported as 0.47 Pa·s.
